{
  "source": "paper PMC12799421",
  "about": "“Inhibition of constitutive activity of the atypical chemokine receptor 3 by the small-molecule inverse agonist VUF16840” (Molecular Pharmacology, 2025)",
  "format_in_all_cases": "cell-based",
  "key": {"hCXCR4": {"molecular_target": "T1, hCXCR4 (Homo sapiens, UniProt P61073)", "T1 construct": "The CXCR4-Rluc8 fusion protein corresponds to CXCR4 isoform b (NCBI: NM_003467.2); expressed in transfected cells; host or cells: HEK293T", "T1 sequence (P61073 whole entry, the tested form may be a part, canonical isoform)": "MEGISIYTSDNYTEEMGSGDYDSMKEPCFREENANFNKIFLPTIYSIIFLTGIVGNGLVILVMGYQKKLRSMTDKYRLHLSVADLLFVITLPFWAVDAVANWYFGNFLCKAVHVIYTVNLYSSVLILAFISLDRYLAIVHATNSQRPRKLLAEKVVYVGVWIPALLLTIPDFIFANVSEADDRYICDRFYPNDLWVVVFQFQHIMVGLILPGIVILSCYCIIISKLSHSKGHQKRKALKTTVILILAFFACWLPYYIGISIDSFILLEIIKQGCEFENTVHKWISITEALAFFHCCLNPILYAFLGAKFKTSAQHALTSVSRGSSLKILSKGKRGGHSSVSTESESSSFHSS", "experiment": "BRET β-arrestin2 recruitment to hCXCR4 in HEK293T cells", "details": "in the presence or absence of 100 nM CXCL12", "excerpt": "The NLuc-ACKR3 plasmid was a kind gift from Prof Hill (Nottingham University, Nottingham, United Kingdom),[31] […] The mVenus-CAAX and the hACKR3-NLuc constructs have been described by Zarca et al.[23] The sequence of the used ACKR3 constructs corresponds to National Center for Biotechnology Information (NCBI) database entry NM_020311.3. Radioligand binding studies used a mammalian expression vector pcDEF3 encoding ACKR3, N-terminally fused to an HA-tag and C-terminally fused to a triple Alanine tag (NotI). This construct was the template for the C-terminal ACKR3 fusion with the luminescent Rluc8 protein (NCBI: EF446136.1). The CXCR4-Rluc8 fusion protein corresponds to CXCR4 isoform b (NCBI: NM_003467.2) fused at the C-terminus with a triple Alanine linker (NotI) before the Rluc8 protein.\nFor 1·10^6 HEK293T cells, a transfection mix consisting of 2 μg plasmid DNA, 12 μg linear PEI in a total volume of 200 μL 150 mM NaCl was made and thoroughly vortexed. The transfection mix was incubated for 15 minutes and consequently added to a cell suspension with a final concentration of 3·10^5 cells/mL. […]\nFig. 2 VUF16840 inhibits constitutive as well as agonist induced β-arrestin2 recruitment to ACKR3. […] Subsequently, β-arrestin2 recruitment to hACKR3 was detected by NanoBiT complementation. […]"}, "hACKR3-NLuc": {"molecular_target": "T2, hACKR3-NLuc (Homo sapiens, UniProt P25106)", "T2 construct": "expressed in transfected cells; host or cells: HEK293T", "T2 sequence (P25106 whole entry)": "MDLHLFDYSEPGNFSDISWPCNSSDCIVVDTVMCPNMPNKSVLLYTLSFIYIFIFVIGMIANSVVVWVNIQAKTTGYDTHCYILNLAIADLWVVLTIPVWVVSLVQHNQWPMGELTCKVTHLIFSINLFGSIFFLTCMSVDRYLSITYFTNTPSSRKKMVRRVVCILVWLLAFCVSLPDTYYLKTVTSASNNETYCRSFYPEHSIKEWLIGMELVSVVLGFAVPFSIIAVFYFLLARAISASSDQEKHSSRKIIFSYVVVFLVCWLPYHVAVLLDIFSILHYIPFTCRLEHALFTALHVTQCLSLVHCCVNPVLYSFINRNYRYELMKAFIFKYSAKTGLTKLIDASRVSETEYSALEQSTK", "experiment": "Bystander BRET detection of ACKR3 membrane localization", "details": "1 μM VUF16840"}, "hCXCR4-NLuc": {"molecular_target": "T3, hCXCR4-NLuc (Homo sapiens, UniProt P61073)", "T3 construct": "expressed in transfected cells; host or cells: HEK293T", "T3 sequence (P61073 whole entry)": "as the sequence (P61073 whole entry, the tested form may be a part, canonical isoform) above", "experiment": "Bystander BRET detection of CXCR4 membrane localization", "details": "1 μM VUF16840", "experimental": "Ligand-induced receptor mobilization to the plasma membrane was monitored by bystander NanoBRET according to an established method.[36] For this assay, 5 × 10^6 HEK293T cells were seeded in 10-cm dishes and cotransfected with plasmids encoding ACKR3 C-terminally tagged with NLuc and mNeonGreen N-terminally tagged with the plasma membrane targeting sequence corresponding to the first 11 residues ([…]) of the human Lyn-kinase.[37] Twenty-four hours after transfection, cells were distributed into black 96-well plates (1 × 10^5 cells per well) and treated with chemokines (100 nM). After 45-minute incubation at 37 °C, coelenterazine H (10 μM) was added and donor emission (460 nm) and acceptor emission (535 nm) were immediately measured on a GloMax Discover (Promega) plate reader.\nThe resulting proximity between hACKR3-NLuc and was determined as bystander BRET. […] (B) The same assay was performed as in A for hCXCR4-NLuc. […] Expression of hACKR3-NLuc at the cell surface was determined by the measurement of bystander BRET. Depicted data represents the mean ± SD of 3 experiments with triplicate measurements per experiment."}},
  "data": [
    {"smiles": "COc1ccccc1CCNC(=O)C1CN(C2CCCCC2)CCC1NC(=O)c1cc(-c2ccc(F)cc2F)on1", "note": "(stereo not drawn) [VUF16840]", "values": [
      {"measurement": "effect on β-arrestin2 recruitment to CXCR4", "setting": "hCXCR4", "value": "did not affect"},
      {"measurement": "effect on bystander BRET signal hACKR3-NLuc / membrane-targeted mNeonGreen (cell surface localization)", "setting": "hACKR3-NLuc", "value": "increased the bystander BRET signals"},
      {"measurement": "effect on CXCR4 surface expression (bystander BRET)", "setting": "hCXCR4-NLuc", "value": "not affected"}
    ]}
  ]
}
